Counter-ions that a name gives are not always drawn. Like-named read-outs stand apart in the source and are kept apart here.

This note sets out measurements from US20230285372A1, “Pharmaceutical use of (E)-3-arylheterocyclylprop-2-enoic acid derivatives” (MEDCURIUS INC., priority 2020, published 2023).

One assay has as its system NQO-1. Kind of assay: NQO-1 expression in HT-22 cytoplasm, Western Blot. Type of assay: cell-based, mouse. The settings on record: HT-22 cells, 1.25 μM and 0.625 μM, 24 hours, vs control group. An excerpt: (§1) As a transcription factor, Nrf2 needs to enter the nucleus and combine with ARE sequence to play a role in transcriptional activation. Therefore, Nrf2 protein level in the nucleus is an important prerequisite for the activation of Nrf2 signaling pathway. NQO-1 and HO-1 are target genes regulated by Nrf2, and the increase of their protein levels is an important sign of activation of the Nrf2 signaling pathway.
(§2) HT-22 cells in logarithmic growth phase were selected, the culture medium was discarded, the cells were digested with 0.25% Trypsin containing EDTA, and cell suspension was made. Cell density was adjusted to 50000/ml with DMEM/F12 medium (containing 10% FBS and 1% double antibody) and it was inoculated to 6-well plate, with 2000 μL/well, the number of cells per well was 100, 000, and the cells were cultured in a cell incubator at 37° C. in an atmosphere containing 5% CO2 for 24 hours. Then, the medium of each well was replaced with new 1980 μL DMEM/F12 medium. […] After 24 hours, the cells were collected, nuclear protein and cytoplasmic protein were extracted, and the level of Nrf2 in the nucleus and the expression of NQO-1 and HO-1 in cytoplasm were detected by Western Blot.

For a further assay, the system named is HT-22 cells. Nature of the assay: Protective effect on HT-22 cell damage caused by L-glutamate monosodium salt. The settings on record: Mus musculus, 15 mM L-glutamate, 24 hours. The assay is classed as cell-based, mouse. As to the method:
(§3) Well-proliferated HT-22 cells, derived from mouse hippocampal neuronal cells in logarithmic growth phase, were selected, and they were counted after being subjected to trypsin digestion and dispersion. The cell density was adjusted with DMEM/F12 medium (containing 10% FBS and 1% double antibody). The cells were then inoculated in a 96-well plate at a density of 2,000 cells per well, and cultured in a cell incubator at 37° C. in atmosphere containing 5% CO2 for 24 hours. For the control group and the L-glutamate monosodium salt group (model group), serum-free DMEM/F12 medium was added, and the other wells were added with tested compounds of different concentrations; except that the serum-free DMEM/F12 medium was added to the control group. L-glutamate monosodium salt solution at the final concentration of 15 mM was added to the remaining wells. After 24 hours, the cell viability was detected with a luminescent cell viability assay kit.
as §3, with “group,” for “group.”
as §3, with “2.000” for “2,000”, “group,” for “group.”

For another assay, the system named is Nrf2. Kind of assay: Nrf2 protein level in the nucleus of HT-22 cells, Western Blot. The assay is classed as cell-based, mouse. Particulars: 1.25 μM and 0.625 μM, 24 hours, vs control group.
Description: as §1, §2
(In general: A western blot detects proteins with antibodies after separation by electrophoresis.)

Another assay relates to HO-1. Kind of assay: HO-1 expression in HT-22 cytoplasm, Western Blot. Type of assay: cell-based, mouse. Particulars: HT-22 cells, 1.25 μM and 0.625 μM, 24 hours, vs control group.
Description: as §1, §2

In a further assay the test system is α-synuclein protein. Nature of the assay: α-synuclein protein level in midbrain, Western blot, MPTP mouse. Type of assay: in vivo. The settings on record: L-DOPA 10 mg/kg; p>0.05. An excerpt:
(§4) The core pathological change of Parkinson's disease is the loss of dopaminergic neurons. Tyrosine hydroxylase (TH), the rate-limiting enzyme in dopamine synthesis, is the landmark protein of the dopaminergic neurons. Therefore, the decrease in its level indicates the loss of the dopaminergic neurons. A key protein for the occurrence and development of Parkinson's disease is α-synuclein protein, and the abnormal modification (hyperphosphorylation) of this protein can inhibit microtubule polymerization, enhance oxidative stress, and thus accelerate the death of the dopaminergic neurons.
Male C57 mouse were screened for their motor function by a mouse rod-rotating test, and unqualified ones were excluded from the test. […] MPTP was injected subcutaneously every 4 days in the model group and the drug administration group with a dosage of 25 mg/kg for 40 consecutive days. Each group of I-5 was administered once a day at 8:00 am and 8:00 pm (by intragastric administration), twice in total. […]
Tissues from all the animals were collected on the second day after the end of the behavioral experiment. […] The level of tyrosine hydroxylase (TH), a marker protein of dopaminergic neurons, was detected by immumohistochemistry, and α-synuclein protein level and phosphorylation level of the protein were detected by Western blot.

The test system of the next assay is p-synuclein. Nature of the assay: Phosphorylated α-synuclein (p-synuclein) level in midbrain, Western blot, MPTP mouse. Particulars: L-DOPA 10 mg/kg; p>0.05. The assay is classed as in vivo.
Description: as §4
(§5) Male C57 mouse were screened for their motor function by a mouse rod-rotating test, and unqualified ones were excluded from the test. […] MPTP was injected subcutaneously every 4 days in the model group and the drug administration group with a dosage of 25 mg/kg for 40 consecutive days. Each group of I-5 was administered once a day at 8:00 am and 8:00 pm (by intragastric administration), twice in total. […] The intragastric volume was 0.1 ml/10 g body weight, and the behavior test was started 40 days later. […] The storage time of the prepared liquid medicine was not more than 24 hours.
Tissues from all the animals were collected on the second day after the end of the behavioral experiment. Hearts from six animals in each group were perfused and fixed with paraformaldehyde for pathological analysis of paraffin sections. Brain tissue of the remaining animals was separated on ice, and brain areas (midbrain) related to Parkinson's disease were collected. After being frozen with liquid nitrogen, they were stored in a refrigerator at −80° C. for protein analysis. The level of tyrosine hydroxylase (TH), a marker protein of dopaminergic neurons, was detected by immumohistochemistry, and α-synuclein protein level and phosphorylation level of the protein were detected by Western blot.

Assay [1] has as its system MPTP-induced Parkinson's disease mouse. Kind of assay: Pole-climbing test, MPTP-induced Parkinson's disease mouse. The settings on record: L-DOPA 10 mg/kg qd intragastric, 40 days; vs model group, p<0.0001. Type of assay: in vivo. As to the method: as §5
A climbing pole in the pole-climbing test was a rough wooden pole with a diameter of 2 cm and a length of 50 cm. The bottom of the wooden pole was located in the mouse home cage and was vertically oriented. When the mouse was placed on top of the wooden pole, it would naturally descend to the bottom of the wooden pole and reach the base of the pole. […] The mouse should have a pre-acclimation period of 2 days prior to the test, training five times a day. To the test day, the time required for the […] to reach the bottom (incubation period) was taken as an evaluation index to observe the effect of the tested compound on the motion ability of the mouse.

The test system is the same in assay [2]. Nature of the assay: Rotarod test, MPTP-induced Parkinson's disease mouse. The settings on record: L-DOPA 10 mg/kg qd; vs model group, p<0.0001. The assay is classed as in vivo. As for the experimental part:
as §5
On the first day, the mouse acclimated to a rotating speed of 5 rpm for two times, each time for 5 minutes. On the second day, the rotarod turned at a speed of 10 rpm, the mouse acclimated to the speed for two times, each time for 5 minutes. On the third day, the rotarod turned at a speed of 15 rpm, the mouse acclimated to the speed for two times, each time for 3 minutes. On the fourth day, a behavioral test was started. The rotarod turned at a speed of 15 rpm for a period of 3 minutes. The time mouse spent on the rotarod (fall latency) was taken as an index for evaluation of their motor coordination. The test was repeated three times for each animal, with an interval of 30 minutes to eliminate the interference of exercise fatigue on the motion ability of animals.

A further assay has as its system SH-SY5Y cells. Nature of the assay: Protective effect on SH-SY5Y cell damage caused by oxygen-glucose deprivation/reperfusion. The assay is classed as cell-based. Particulars: OGD 4 hours then 24 hours, CCK-8, model 56.83. As to the method:
SH-SY5Y cells in logarithmic growth phase were selected, the culture medium was discarded, the cells were digested with 0.25% Trypsin containing EDTA, and cell suspension was made. Cell density was adjusted to 30,000/ml with DMEM/F12 medium (containing 10% FBS and 1% double antibody) and it was inoculated to 96-well plate, 100 μL/well, the number of cells per well was 3,000, and the cells were cultured in a cell incubator at 37° C. in an atmosphere containing 5% CO2 for 24 hours. After 24 hours, the cells were washed twice with the Earle's solution. For the control group, 100 μL oxygenated Earle's solution was added in each well, and for the remaining groups, 100 μL oxygen-free Earle's solution after nitrogen bubbling was added, and the oxygen content in an anoxic chamber was kept below 0.5%, and models were made in the cell incubator for 4 hours. […] After 24 hours, CCK-8 cell viability test kit was used to detect the cell viability.

On to `COC(=O)/C=C/C(=O)OC` [DMF, dimethyl fumarate, reference compound], for which, in the assay on NQO-1, the “protein level of NQO-1” value was “no statistical difference”. Further, the viability at 0.078 µM with HT-22 cells (HT-22, 24 h, Table 1, Conc 0.078 μm, L-Glu alone 27.73 (I-5 32.92), read-out: cell viability) came out at 37.6%; in the assay on HT-22 cells (HT-22, 24 h, Table 2, Conc 0.078 μM, L-Glu alone 27.83, read-out: Visibility %), 34.3%. The viability at 0.156 µM was 47.5% with HT-22 cells (HT-22, 24 h, Table 1, Conc 0.156 μm, L-Glu alone 27.73 (I-5 32.92), read-out: cell viability) and 34.9% with HT-22 cells (HT-22, 24 h, Table 2, Conc 0.156 μM, L-Glu alone 27.83, read-out: Visibility %). Besides, the viability at 0.313 µM in the assay on HT-22 cells (HT-22, 24 h, Table 1, Conc 0.313 μm, L-Glu alone 27.73 (I-5 32.92), read-out: cell viability) worked out at 52.8%. Further, the viability at 0.625 µM in the assay on HT-22 cells (HT-22, 24 h, Table 1, Conc 0.625 μm, L-Glu alone 27.73 (I-5 32.92), read-out: cell viability) is 60%. Moreover, in the assay with HT-22 cells (HT-22, 24 h, Table 1, Conc 1.25 μm, L-Glu alone 27.73 (I-5 32.92), read-out: cell viability), the viability at 1.25 µM is 53.3%. Also, the viability at 2.5 µM in the assay on HT-22 cells (HT-22, 24 h, Table 1, Conc 2.5 μm, L-Glu alone 27.73 (I-5 32.92), read-out: cell viability) is 63.6%. For the same compound, the viability at 10 µM with HT-22 cells (HT-22, 24 h, Table 1, Conc 10 μm, L-Glu alone 27.73 (I-5 32.92), read-out: cell viability) is 70.2%. Further, the “protein level of Nrf2 in the nucleus” value with Nrf2 is listed as “no statistical difference”. Besides, in the assay on HO-1, the “protein level of HO-1” value is recorded as “no statistical difference”.
Turning to `N[C@@H](Cc1ccc(O)c(O)c1)C(=O)O` [L-DOPA, levodopa, reference compound], the “α-synuclein protein level in the midbrain” value with α-synuclein protein is recorded as “no significant effect”. In addition, in the assay with p-synuclein, the “p-synuclein protein level in the midbrain” value is listed as “no significant effect”. Further, the “latency of mouse reaching the base of the pole” value in assay [1] was “significantly shorten the latency”. The “fall latency in the Rotarod test” value in [2] is given as “significantly prolonged”.
For `CC1=NN(c2ccccc2)C(=O)C1` [Edaravone, reference compound], the Visibility % came to 59.41% in the assay with SH-SY5Y cells (Conc 0.078 μM), 62.42% with SH-SY5Y cells (Conc 0.156 μM) and 67.39% in the assay on SH-SY5Y cells (Conc 10 μM).
In the case of `N#C/C=C/c1ccccn1` [I-5 HCl], the Visibility % in the assay with SH-SY5Y cells (Conc 0.078 μM) was determined as 67.72%; with SH-SY5Y cells (Conc 0.156 μM), 67.82%; in the assay on SH-SY5Y cells (Conc 0.313 μM) it was 69.35%; in the assay on SH-SY5Y cells (Conc 0.625 μM), 74.72%.
With `COC(=O)NC(=O)/C=C/c1cccnc1` [Compound I-16], the viability at 0.078 µM with HT-22 cells (HT-22, Table 2, Conc 0.078 μM, L-Glu alone 27.83, read-out: Visibility %) is 41.3%. Moreover, the viability at 0.625 µM in the assay with HT-22 cells (HT-22, Table 2, Conc 0.625 μM, L-Glu alone 27.83, read-out: Visibility %) was 34.2%. Also, the viability at 2.5 µM in the assay with HT-22 cells (HT-22, Table 2, Conc 2.5 μM, L-Glu alone 27.83, read-out: Visibility %) stood at 40.4%.
